Results from PMC11775033, “Toxicokinetics of benzotriazole UV stabilizer UV-P in humans after single oral administration” (Archives of Toxicology, 2024).
Values joined by “and” are separate entries in the source; they are usually repeats but may differ in a detail not shown here. Equal entries are not always repeated. Where two headings read alike, the source gives them in different places.

Experiments:
[1] = set-up: method as in ref Arisu et al. [1992]; Björkner and Niklasson [1997]; Niklasson and Björkner [1989]; settings: ref Arisu et al. [1992]; Björkner and Niklasson [1997]; Niklasson and Björkner [1989]; cited from earlier work
rats = test system: rats; set-up: method as in OECD [2017]; settings: ref OECD [2017]; cited from earlier work
[2] = test system: aryl hydrocarbon receptor; set-up: method as in ref Fent et al. [2014]; Kubota et al. [2022]; Liang et al. [2023]; Nagayoshi et al. [2015]; settings: ref Fent et al. [2014]; Kubota et al. [2022]; Liang et al. [2023]; Nagayoshi et al. [2015]; cited from earlier work
[3] = Renal excretion kinetics of UV-P in urine after single oral administration (human volunteer study); format: in vivo; settings: for half-life: oral, 0.3 mg/kg body weight
Method: Three healthy volunteers (two men and one person) aged between 23 and 57 years were included in the study. […] The NOAEL was used as a starting point and a safety factor of 100 was applied. As a result, 0.3 mg/kg body weight was administered to each participant.
(§1) One blood and one urine sample were collected from each study participant prior to the oral administration of UV-P to determine potential background exposure. 14–27 mg of UV-P (see Table 1) were weighed onto a small piece of bread with butter, which was then consumed by the volunteers. From Subject 1, urine and blood samples were collected up to 72 h post-application. From the other two subjects, samples of urine and blood were collected up to 48 h post-application. The participants collected all urine voids in separate containers. Sampling times and volumes were recorded for each sample. The urine samples were aliquoted and stored at − 20 °C until analysis. 9 ml of blood were drawn from peripheral veins 1 h, 2 h, 3 h, 4 h, 5 h, 6 h, 10 h, 24 h, and 48 h after exposure and collected in EDTA-Monovettes®. From Subject 1, additional blood samples were drawn 8 h, 12 h, 32 h, and 72 h after exposure. Blood samples were stored at – 20 °C until analysis.
The preparation and processing of urine samples was based on a method published by Fischer and Göen ([2021]). However, a few modifications were made. The samples were thawed at room temperature, thoroughly mixed, and subsequently centrifuged at 1600 × g for 2 min. 200 µl of the supernatant were transferred into a 10-ml glass, conical-bottomed centrifuge tube. 800 µl of water, 10 µl of the internal-standard spiking solution (10 mg/l of d4-UV-P in acetonitrile), and 1 ml of sodium acetate buffer (0.4 M, pH 5.0) were added to the samples. After vortex-mixing, 10 µl of β-glucuronidase/arylsulfatase from H. pomatia were added and the samples were briefly vortex-mixed. Enzymatic hydrolysis was performed at 37 °C for 16 h. Afterwards, 2 ml of water, 700 µl of isopropanol, and 400 µl of chloroform were added. The samples were vortex-mixed for 30 s and centrifuged at 2300 × g for 15 min. The lower organic phases were pipetted into 1.8-ml glass vials and evaporated to dryness, followed by the addition of 40 µl of toluene and 40 µl of BSA/TMCS. The samples were vortex-mixed and derivatized at room temperature for 10 min. Afterwards, 20 µl of 5% (v/v) TSIM were added. The samples were vortex-mixed and transferred into the micro-inserts of 1.8-ml glass vials. Finally, the samples were heated to 40 °C for 1 h and analyzed by GC–MS/MS.
A nine-point calibration curve in the range of 10–5000 µg/l was applied for the analysis of the in vivo study samples. For calibration, two analyte spiking solutions containing 50 mg/l and 2 mg/l of UV-P were prepared in acetonitrile.
The urinary creatinine content of the study samples was determined photometrically by the Jaffé’s method (Larsen [1972]). To quantify the unconjugated form of UV-P, the urine samples of one study participant were additionally processed without the addition of β-glucuronidase/arylsulfatase from H. pomatia and incubation at 37 °C.
Renal excretion rates (RE, in µg/h) of UV-P at a certain point in time were calculated by the following equation: RE=ci×vi/ti-ti-1 where ci (in µg/l) is the concentration of UV-P in the urine sample i, vi (in l) is the volume of the respective urine sample, ti (in h) is the elapsed time value of sample collection, and ti–1 (in h) is the elapsed time value of the previous sample collection.

human serum albumin = test system: human serum albumin; set-up: method as in Zhuang et al. [2016]; settings: ref Zhuang et al. [2016]; cited from earlier work
[4] = Kinetics of UV-P in blood after single oral administration (human volunteer study); format: in vivo; settings: for half-life: po, 0.3 mg/kg; for Tmax: oral, post-exposure, read-out: time of maximum blood levels
Method: Three healthy volunteers (two men and one person) aged between 23 and 57 years were included in the study. The administered dose of UV-P was calculated with respect to an adequate distance from the no-observed-adverse-effect level (NOAEL) determined in toxicological studies in rats (30 mg/kg body weight per day) (OECD [2017]). The NOAEL was used as a starting point and a safety factor of 100 was applied. As a result, 0.3 mg/kg body weight was administered to each participant.
as §1
The preparation and processing of the blood samples was based on a previously published method (Fischer and Göen [2023]). The samples were stored at – 20 °C until analysis. The samples were thawed at room temperature and mixed on a roller mixer. 1 ml of each sample was pipetted into a separate 6-ml glass vial. 20 µl of the d4-UV-P spiking solution [1000 µg/l of d4-UV-P in a mixture of 0.9% NaCl solution and acetonitrile (v/v, 9:1)] was added. 1 ml of acetonitrile was added to the samples, which were then vortex-mixed for 1 min and centrifuged at 4000 × g for 15 min at room temperature. The supernatants were transferred to clean 6-ml glass vials. 0.5 ml of sodium acetate buffer (0.4 M, pH 5.0) and 10 µl of β-glucuronidase/arylsulfatase from H. pomatia were added. After brief vortex-mixing, the samples were incubated at 37 °C for 16 h. After incubation, the samples were transferred to conical-bottomed centrifuge tubes and diluted with 2.5 ml of water. 1 ml of acetonitrile and 700 µl of chloroform were added and the samples were vortex-mixed for 30 s and centrifuged at 2500 × g for 15 min. The lower organic phases were pipetted into separate 1.8-ml glass vials and evaporated to dryness, followed by the addition of 40 µl of toluene and 40 µl of BSA/TMCS. The samples were vortex-mixed and derivatized at room temperature for 10 min. Afterwards, 20 µl of 5% (v/v) TSIM were added. The samples were vortex-mixed and transferred into the micro-inserts of 1.8-ml glass vials. Finally, the samples were heated to 40 °C for 1 h and analyzed by GC–MS/MS.
A seven-point calibration curve in the range of 0.5–150 µg/l was applied. Calibration standards were prepared by spiking human blood with various volumes of the UV-P spiking solutions containing 1000 µg/l or 100 µg/l of UV-P in a mixture of 0.9% NaCl solution and acetonitrile (v/v, 9:1). One sample each of Qlow (low-concentration quality-control material; 1 µg/l) and Qhigh (high-concentration quality-control material; 30 µg/l) was processed analogously to the samples in each analytical run. A reagent-blank sample, containing water instead of blood, was included in each analytical run as well. Any blank values were subtracted from the analytical results. The reliability criteria of the method are given in the Supplementary Information. […]

[5] = set-up: method as in ref Fent et al. [2014]; Zhuang et al. [2017]; Sakuragi et al. [2021]; settings: in vivo studies; ref Fent et al. [2014]; Zhuang et al. [2017]; Sakuragi et al. [2021]; cited from earlier work
[6] = human, cited from earlier work
[7] = cited from earlier work

Structure (SMILES): Cc1ccc(O)c(-n2nc3ccccc3n2)c1 [UV-P, 2-(2H-Benzotriazol-2-yl)-p-cresol]
- allergic contact dermatitis [1]: cause allergic contact dermatitis
- no-observed-adverse-effect level (NOAEL) (rats): 30 mg/kg body weight per day
- activation of the aryl hydrocarbon receptor [2]: activates
- orally administered dose recovered in urine within 72 h ([3]; Subject 1 only, 72 h): 44.9%
- time at which cumulative amount excreted via urine reached a plateau ([3]; after exposure, Subject 1 (Figure SI-3)): about 24 h
- half-life ([3]; both sexes, human, urine, human urine, first phase until 7 h post-administration, n = 3, mean ± SD (range), read-out: t1/2—Phase 1 (renal excretion) (converted)): 0.7 ± 0.2 h
- half-life ([3]; both sexes, human, urine, human urine, second elimination phase, n = 3, mean ± SD (range), read-out: t1/2—Phase 2 (renal excretion) (converted)): 6.6 ± 1.1 h
- Tmax ([3]; both sexes, human, urine, po, 0.3 mg/kg, human urine, single oral 0.3 mg/kg, n = 3, mean ± SD (range), read-out: tmax (timepoint of maximum renal excretion rate)): 3.5 ± 1.1 h
- FUE after 6 h (urinary excretion factor, % of dose) ([3]; human urine, 6 h, n = 3, mean ± SD (range)): 26.7–33.2%
- FUE after 12 h (urinary excretion factor, % of dose) ([3]; human urine, 12 h, n = 3, mean ± SD (range)): 30.4–40.2%
- FUE after 24 h (urinary excretion factor, % of dose) ([3]; human urine, 24 h, n = 3, mean ± SD (range)): 31.7–43.3%
- FUE after 48 h (urinary excretion factor, % of dose) ([3]; human urine, 48 h, n = 3, mean ± SD (range)): 37.2 ± 5.4% and 32.0–44.7% and 32–45% and 37%
- REmax (maximum renal excretion rate) ([3]; human urine, single oral 0.3 mg/kg body weight, with enzymatic hydrolysis, n = 3, mean ± SD (range), 0.3 mg/kg): 2896 ± 884 µg/h and 2896 ± 885 µg/h
- tmax (timepoint of maximum renal excretion rate) ([3]; human urine, single oral 0.3 mg/kg, n = 3, mean ± SD (range), 0.3 mg/kg): 2.6 to 5.0 h and 3 to 5 h
- binding to human serum albumin (human serum albumin): bind
- half-life ([4]; both sexes, human, whole blood, human blood, single oral 0.3 mg/kg, first phase up to 6 h, n = 3, mean ± SD (range), read-out: t1/2—Phase 1 (blood) (converted)): 1.3 ± 0.1 h
- half-life ([4]; both sexes, human, whole blood, human blood, single oral 0.3 mg/kg, second phase, n = 3, mean ± SD (range), read-out: t1/2—Phase 2 (blood) (converted)): 7.7 ± 1.1 h
- concentration at 6 h ([4]; both sexes, human, whole blood, 6 h post-exposure, single oral 0.3 mg/kg, n = 3, read-out: mean blood level of UV-P): 44 ± 30 ng/mL
- concentration at 24 h ([4]; both sexes, human, whole blood, 24 h post-exposure, single oral 0.3 mg/kg, n = 3, read-out: mean blood level of UV-P): 2.5 ± 1.3 ng/mL
- concentration at 48 h ([4]; both sexes, human, whole blood, 48 h post-exposure, single oral 0.3 mg/kg, n = 3, read-out: mean blood level of UV-P): 0.7 ± 0.7 ng/mL
- Cmax ([4]; both sexes, whole blood, human blood, single oral 0.3 mg/kg body weight, with enzymatic hydrolysis, n = 3, mean ± SD (range), read-out: cmax (maximum level of UV-P in blood)): 184 ± 36 ng/mL
- concentration at 72 h ([4]; human, whole blood, 0.3 mg/kg body weight, 72 h after oral administration, Subject 1 only, read-out: blood level of UV-P): 0.45 ng/mL
- Tmax ([4]; human, whole blood, 0.3 mg/kg body weight, third subject (Subject 1)): 4 h
- Tmax ([4]; human, whole blood, 0.3 mg/kg body weight, two of the subjects (Subjects 2 and 3)): 1 to 2 h
- slope of linear fit, blood levels without vs with hydrolysis (unconjugated share) ([4]; subject 1): 0.133
- slope of linear fit, blood levels without vs with hydrolysis (unconjugated share) ([4]; subject 2): 0.196
- slope of linear fit, blood levels without vs with hydrolysis (unconjugated share) ([4]; subject 3): 0.135
- endocrine effects in vivo [5]: no indication of endocrine effects

Structure (SMILES): CCC(C)(C)c1cc(-n2nc3ccccc3n2)c(O)c(C(C)(C)CC)c1 [UV-328, 2-(2H-benzotriazol-2-yl)-4,6-di-tert-pentylphenol]
- time of maximum concentrations in blood (average) ([6]; after oral administration, ref Fischer et al. [2023], Denghel et al. [2021]): 8 h
- share of ingested amount excreted via urine as parent compound ([7]; accumulated until 72 h post-exposure, ref Denghel et al. [2021], Fischer et al. [2023]): 0.001%
- share of conjugation of renally eliminated compound ([7]; human urine, ref Denghel et al. [2021], Fischer et al. [2023]): 16%
- sum of renally eliminated parent compound and metabolites ([7]; share of ingested amount, ref Denghel et al. [2021], Fischer et al. [2023]): 0.12%

Structure (SMILES): CC(C)(C)c1cc(-n2nc3ccc(Cl)cc3n2)c(O)c(C(C)(C)C)c1 [UV-327]
- time of maximum concentrations in blood (average) ([6]; in vivo, po): 6 h
- sum of renally eliminated parent compound and metabolites ([7]; in vivo): 0.03%
